Calls of active or inactive are those of the source. The rule behind the calls is not given here. Where a SMILES comes first, the peptide text is derived from it. Side-chain parts run from the residue outwards.
Assays:
[1] = system: Cell membrane; experiment: Induction of outer membrane permeabilization in Escherichia coli assessed as increase in fluorescence intensity at 0.5 to 4 times MIC measured for 12 mins by NPN dye based assay
[2] = system: Staphylococcus aureus; experiment: Antibacterial activity against Staphylococcus aureus ATCC 25923 assessed as inhibition of bacterial growth incubated for 20 hrs in presence of MgCl2 by broth microdilution method (reference value: 16 microM); type: functional
[3] = system: Cell membrane; experiment: Induction of outer membrane permeabilization in Escherichia coli assessed as increase in fluorescence intensity at 0.5 to 4 times MIC measured within 1 min by NPN dye based assay
[4] = Acute toxicity in ip dosed male BALB/c mouse administered as single dose; type: organism-based; conditions: male, BALB/c, in vivo, read-out: LD50
[5] = Therapeutic index, ratio of MHC10 for hemolytic activity in mouse erythrocytes preincubated with 10% mouse serum for 6 hrs to MIC for Staphylococcus aureus ATCC 25923 preincubated with 10% mouse serum for 6 hrs; type: toxicity, cell-based; conditions: mouse erythrocytes, read-out: TI
[6] = system: Cell membrane; experiment: Disruption of cell membrane morphology in Staphylococcus aureus assessed as loss of intact cell morphology at 2 times MIC measured after 0.5 to 2 hrs by SEM analysis; type: cell membranes; conditions: time 0.5-2 hrs
[7] = system: Staphylococcus aureus; experiment: Antibacterial activity against Staphylococcus aureus ATCC 25923 assessed as inhibition of bacterial growth incubated for 20 hrs in presence of ZnCl2 by broth microdilution method (reference value: 16 microM); type: functional
[8] = Acute toxicity in male BALB/c mouse assessed as torpid movement at 80 to 130 mg/kg, ip administered as single dose and measured after 3 days; type: organism-based; conditions: in vivo, 72 h, dose 80-130 mg/kg, time 3 day
[9] = Acute toxicity in male BALB/c mouse assessed as animal death at 80 mg/kg, ip administered as single dose and measured after 3 days; type: organism-based; conditions: in vivo, 72 h, time 3 day
[10] = Acute toxicity in male BALB/c mouse assessed as loss of appetite at 80 to 130 mg/kg, ip administered as single dose and measured after 3 days; type: organism-based; conditions: in vivo, 72 h, dose 80-130 mg/kg, time 3 day
[11] = system: Staphylococcus aureus; experiment: Drug resistance, ratio of MIC for Staphylococcus aureus after 20 passages to MIC for Staphylococcus aureus after initial exposure; type: functional
[12] = Stability in mouse serum assessed as half life at 10 mM measured upto 24 hrs by RP-HPLC analysis; type: ADME, cell-free
[13] = system: Staphylococcus aureus; experiment: Antibacterial activity against Staphylococcus aureus ATCC 25923 assessed as inhibition of bacterial growth incubated for 20 hrs in presence of FeCl3 by broth microdilution method (reference value: 16 microM); type: functional
[14] = system: Cell membrane; experiment: Disruption of cell membrane morphology in Staphylococcus aureus assessed as breakage of cell membrane at 2 times MIC measured after 0.5 to 2 hrs by SEM analysis; type: cell membranes; conditions: time 0.5-2 hrs
[15] = Hemolytic activity in mouse erythrocytes at 256 uM preincubated for 1 to 6 hr with 10% mouse serum and measured after 1 hr by absorbance based analysis; type: toxicity, cell-based, Erythrocyte; conditions: time 1-7 hrs, read-out: Activity
[16] = system: Cell membrane; experiment: Disruption of cell membrane morphology in Escherichia coli assessed as partial creasing in bacterial membrane at 2 times MIC measured after 0.5 to 2 hrs by SEM analysis; type: cell membranes; conditions: time 0.5-2 hrs
[17] = system: Staphylococcus aureus; experiment: Resistant development in Staphylococcus aureus assessed as increase in MIC at sub-MIC in presence of gentamicin measured after 20 passages; type: functional, organism-based
[18] = Therapeutic index, ratio of MHC10 for hemolytic activity in mouse erythrocytes preincubated with 10% mouse serum for 1 hr to MIC for Escherichia coli ATCC 25922 preincubated with 10% mouse serum for 1 hr; type: toxicity, cell-based; conditions: mouse erythrocytes, read-out: TI
[19] = system: Escherichia coli; experiment: Resistant development in Escherichia coli assessed as increase in MIC at sub-MIC in presence of rifampicin measured after 20 passages; type: functional, organism-based
[20] = system: Cell membrane; experiment: Induction of cell membrane damage in Escherichia coli assessed as PI uptake at 2 times MIC measured after 0.5 hrs by PI dye based flow cytometry analysis (reference value: 18.1%); type: cell membranes
[21] = system: Escherichia coli; experiment: Drug resistance, ratio of MIC for Escherichia coli after 20 passages to MIC for Escherichia coli after initial exposure; type: functional
[22] = Cytotoxicity against HEK293T cells assessed as cell death measured after 1 hr by resazurin dye based analysis; type: toxicity, HEK-293T; conditions: human, HEK293T cells
[23] = system: Cell membrane; experiment: Disruption of cell membrane morphology in Escherichia coli assessed as release of cellular contents at 2 times MIC measured after 0.5 to 2 hrs by SEM analysis; type: cell membranes; conditions: time 0.5-2 hrs
[24] = system: Cell membrane; experiment: Induction of cell membrane damage in Staphylococcus aureus assessed as PI uptake at 2 times MIC measured after 0.5 hrs by PI dye based flow cytometry analysis (reference value: 24.2%); type: cell membranes
[25] = system: Escherichia coli; experiment: Synergistic antibacterial activity against Escherichia coli ATCC 25922 assessed as fractional inhibitory concentration index at 0.25 to 4 times MIC incubated for 20 hrs in presence of polymyxin B by checkerboard assay; type: functional
[26] = system: Escherichia coli; experiment: Bactericidal activity against Escherichia coli ATCC 25922 assessed as elimination of bacteria at 2 times MIC measured within 2 hrs by time kill assay; type: functional, organism-based
[27] = system: Cell membrane; experiment: Disruption of cell membrane morphology in Staphylococcus aureus assessed as partial creasing in bacterial membrane at 2 times MIC measured after 0.5 to 2 hrs by SEM analysis; type: cell membranes; conditions: time 0.5-2 hrs
[28] = system: Cell membrane; experiment: Induction of inner membrane permeabilization in Escherichia coli ML-35 ATCC 43837 at 0.5 to 4 times MIC by ONPG reagent based microplate reader analysis; conditions: time 0-135 min, TDE = time-dependent effect
[29] = system: Staphylococcus aureus; experiment: Antibacterial activity against Staphylococcus aureus ATCC 25923 assessed as inhibition of bacterial growth incubated for 20 hrs in presence of KCl by broth microdilution method (reference value: 16 microM); type: functional
[30] = Acute toxicity in male BALB/c mouse assessed as lusterless fur at 80 to 130 mg/kg, ip administered as single dose and measured after 3 days; type: organism-based; conditions: in vivo, 72 h, dose 80-130 mg/kg, time 3 day
[31] = system: Staphylococcus aureus; experiment: Bactericidal activity against Staphylococcus aureus ATCC 25923 assessed as elimination of bacteria at 2 times MIC measured after 1.5 hrs by time kill assay; type: functional
[32] = system: Cell membrane; experiment: Disruption of cell membrane morphology in Escherichia coli assessed as breakage of cell membrane at 2 times MIC measured after 0.5 to 2 hrs by SEM analysis; type: cell membranes; conditions: time 0.5-2 hrs
[33] = system: Staphylococcus aureus; experiment: Additive antibacterial activity against gentamicin resistant Staphylococcus aureus ATCC 25923 assessed as fractional inhibitory concentration index at 0.25 to 4 times MIC incubated for 20 hrs in presence of gentamicin by checkerboard assay; type: functional
[34] = system: Cell membrane; experiment: Disruption of cell membrane morphology in Staphylococcus aureus assessed as release of cellular contents at 2 times MIC measured after 0.5 to 2 hrs by SEM analysis; type: cell membranes; conditions: time 0.5-2 hrs
[35] = Therapeutic index, ratio of MHC10 for hemolytic activity in mouse erythrocytes preincubated with 10% mouse serum for 6 hrs to MIC for Escherichia coli ATCC 25922 preincubated with 10% mouse serum for 6 hrs; type: toxicity, cell-based; conditions: mouse erythrocytes, read-out: TI
[36] = system: Escherichia coli; experiment: Synergistic antibacterial activity against Escherichia coli ATCC 25922 assessed as fractional inhibitory concentration index at 0.25 to 4 times MIC incubated for 20 hrs in presence of kanamycin by checkerboard assay; type: functional
[37] = system: Staphylococcus aureus; experiment: Synergistic antibacterial activity against rifampicin resistant Staphylococcus aureus ATCC 25923 assessed as fractional inhibitory concentration index at 0.25 to 4 times MIC incubated for 20 hrs in presence of rifampicin by checkerboard assay; type: functional

Compound | Activity [1] | MIC [2] [µM] | Activity [3] | LD50 [4] [mg/kg] | selectivity ratio [5] | Activity [6] | MIC [7] [µM] | Activity [8] | Activity [9] | Activity [10] | Ratio [11] | half-life at 10000 µM [12] [h] | MIC [13] [µM] | Activity [14] | hemolysis at 1 h, 256 µM [15] [%] | Activity [16] | Activity [17] | selectivity ratio [18] | Activity [19] | Activity [20] [%] | further results
N=C(N)NCCC[C@H](NC(=O)[C@@H](N)CCCNC(=N)N)C(=O)NCCCC[C@H](NC(=O)[C@H](CCCNC(=N)N)NC(=O)[C@@H](N)CCCNC(=N)N)C(=O)N[C@@H](Cc1c[nH]c2ccccc12)C(=O)N[C@@H](Cc1c[nH]c2ccccc12)C(=O)N[C@@H](Cc1c[nH]c2ccccc12)C(=O)N[C@@H](Cc1c[nH]c2ccccc12)C(N)=O (H-RRK([Arg-Arg])WWWW-NH2) | Dose-Dependent Effect | 8 | Active | 109 | 1 | Active | 16 | Toxic | Non-Toxic | Toxic | <=2 | 7.38 | 8 | Active | < 10 | Active | inactive | 1 | inactive | > 80 | Ratio [21]: <=2; CC50 at 1 h [22]: > 128 µM; Activity [23]: Active; Activity [24]: > 90%; fractional inhibitory concentration index (FICI) [25]: 0.5; Activity [26]: Active; Activity [27]: Active; Activity [28]: Tde; MIC [29]: 8 µM; Activity [30]: Toxic; Activity [31]: 100%; Activity [32]: Active; fractional inhibitory concentration index (FICI) [33]: 0.563; Activity [34]: Active; selectivity ratio [35]: 0.5
POLYMYXIN B | – | 16 | – | – | – | – | 16 | – | – | – | – | – | 16 | – | – | – | – | – | – | – | fractional inhibitory concentration index (FICI) [36]: 0.5; MIC [29]: 16 µM; fractional inhibitory concentration index (FICI) [33]: 1; fractional inhibitory concentration index (FICI) [37]: 0.5
N=C(N)NCCC[C@H](NC(=O)[C@H](CCCNC(=N)N)NC(=O)[C@H](CCCNC(=N)N)NC(=O)[C@@H](N)CCCNC(=N)N)C(=O)N[C@@H](CCCCN)C(=O)N[C@@H](Cc1c[nH]c2ccccc12)C(=O)N[C@@H](Cc1c[nH]c2ccccc12)C(=O)N[C@@H](Cc1c[nH]c2ccccc12)C(=O)N[C@@H](Cc1c[nH]c2ccccc12)C(N)=O | Dose-Dependent Effect | – | Active | 105 | 0.5 | Active | – | Toxic | Non-Toxic | Toxic | <=2 | 4.31 | – | Active | < 10 | Active | inactive | 0.5 | inactive | > 80 | fractional inhibitory concentration index (FICI) [36]: 0.5; Ratio [21]: <=2; CC50 at 1 h [22]: > 128 µM; Activity [23]: Active; Activity [24]: > 90%; fractional inhibitory concentration index (FICI) [25]: 0.5; Activity [26]: Active; Activity [27]: Active; Activity [28]: Tde; Activity [30]: Toxic; Activity [31]: 100%; Activity [32]: Active; fractional inhibitory concentration index (FICI) [37]: 0.5; Activity [34]: Active; selectivity ratio [35]: 0.25
